We go through one compound from patent US20250295661A1, “MENIN-MLL INHIBITORS FOR THE TREATMENT OF CANCER” (Syndax Pharmaceuticals, Inc., priority 2022, published 2025).

A short description of data set [1]: Population PK model simulation of Compound A dosing regimens (one-compartment, first-order absorption, lag time). The arrangement: species or system human. The method, then: The rationale for these doses is based on PK data from 53 patients treated in Arm A (no strong cytochrome P450 CYP3A4 inhibitor) and Arm B (with a strong CYP3A4 inhibitor) of Study Compound A which were analyzed with a preliminary population PK model. The model was a one-compartment PK model with first-order absorption (ka) and lag time (Tlag) that described the individual PK data. The data confirmed the expected effect of a strong CYP3A4 inhibitor comedication in Arm B on the drug elimination rate (k) and apparent volume of distribution (Vz/F).
The starting dose of 163 mg TID of Compound A alone was selected because it provides Cmax, Cmin, as shown in FIGS. 2A-B, and AUC0-24 approximately half that of 163 mg q12 h with a strong CYP3A4 inhibitor, as shown in FIG. 2C; the lower exposure provides a margin of safety in case CRC patients are more sensitive to the effects of Compound A than acute myeloid leukemia patients. The dose of 276 mg TID is expected to show exposure similar to that for 163 mg q12 h with a strong CYP3A inhibitor based on 3 key PK parameters (Cmax, Cmin, and AUC0-24), as shown in FIGS. 2A-C and Table 3A.

The test system of the next data set is >125 molecular targets. The data set can be described thus: Off-target screening assays.
In another data set the test system is dogs. In words: GLP 28-day dog toxicology study / QTc in dogs. The format is in vivo.
A further data set concerns rats. In words: GLP 28-day rat toxicology study. The data set is classed as in vivo.

With `CCN(C(=O)c1cc(F)ccc1Oc1cncnc1N1CC2(CCN(C[C@H]3CC[C@H](NS(=O)(=O)CC)CC3)CC2)C1)C(C)C` [Compound A], in data set [1] (163 mg TID of Compound A alone), the “Cmax, Cmin and AUC0-24 relative to 163 mg q12 h with a strong CYP3A4 inhibitor” value is listed as “approximately half”. Further, in data set [1] (276 mg TID without CYP3A4 inhibitor), the “Exposure (Cmax, Cmin, AUC0-24) compared with 163 mg q12 h with a strong CYP3A inhibitor” value is on record as “similar”. The “Cross-reactivity in off-target screening” value with >125 molecular targets was “no cross-reactivity”. Further, in the data set on dogs (28-day dog toxicology study), the “Potential main targeted organ of toxicity: heart” value is “electrocardiogram [ECG] changes in dogs”. Further, the “Potential main targeted organs of toxicity (other)” value in the data set with dogs (28-day rat and dog toxicology studies, dog) was “liver, bone marrow, lymphoid tissues, male reproductive system, and female reproductive system”; in the data set with rats (28-day rat and dog toxicology studies, rat), “liver, bone marrow, lymphoid tissues, male reproductive system, and female reproductive system”. For the same compound, the “QTc finding in dogs” value in the data set on dogs (dogs treated with Compound A) is recorded as “Prolonged QTc”. Also, in the data set on rats (28-day rat toxicology study), the “Potential main targeted organ of toxicity: eyes” value is listed as “cataracts in rats only”.
